Data as given in patent US9370526B2, “Combination hormone replacement therapy (HRT) and melatonin to prevent and treat mammary cancer” (Duquesne University of the Holy Spirit, priority 2009, dated 2016).

How the values were obtained:
[1] = tested on: MMTV-neu mice (neu oncogene, mimics HER2+ breast cancer); test: Mammary tumor onset (latency) and incidence in MMTV-neu mice given oral HRT diet and/or nocturnal melatonin in drinking water; assay type: in vivo
Description: (§1) We studied the effects of the present combination therapy as follows. We chose a mouse model, MMTV-neu mice, which express the neu oncogene that mimics HER2+ breast cancer. In a population of mice, both melatonin and HRT were given orally to correlate with the dosage method in women, basing the dosing on diet based on the calories an average woman consumes daily, namely, 1800 kcal, but adjusting for the small size and metabolism of the mice. Estrogen+progestin HRT contained the bioidentical hormones 17β-estradiol (E2) at the currently recommended dosage for women (0.5 mg/1800 kcal) and progesterone (P4) at half of the recommended dose (50 mg/1800 kcal). For example, the daily mouse dose would be less than 500 mcg progesterone (P4). Melatonin was provided in the drinking water at a concentration of 15 mg/L (dose equivalent to a 5 mg tablet for women) only during the night to supplement the normal nocturnal surge in endogenous melatonin. Using drinking water rather than food to administer melatonin allowed the mice continual access to the control and HRT diets, instead of just during the night (dark cycle).
Referring now to FIG. 1, survival curves are shown which represent the age of primary mammary tumor onset in weeks, on the x axis, and percent mammary tumor incidence on the y axis. FIG. 1a represents age of primary mammary tumor onset and incidence between control (C/V) vs. melatonin (C/M) groups, with C signifying no hormone administration, V signifying no melatonin administration, and M signifying melatonin administration. FIG. 1b represents control vs. HRT (HRT/V) groups, with C signifying no hormone administration, V signifying no melatonin administration, and with HRT signifying Hormone Replacement Therapy (in FIG. 1b, without melatonin, or “V”). FIG. 1c represents the results of HRT/V versus HRT/M administration (M=melatonin) and FIG. 1d represents the results of CN versus HRT/M administration. […] No change in body weight occurred as a result of the treatments. […] FIG. 1c represents HRT vs. HRT plus melatonin; FIG. 1d represents control versus HRT plus melatonin.

[2] = tested on: RNA expression in the lower mammary gland; test: RNA expression in the lower mammary gland by microarray analysis; assay type: in vivo, mice
Description: FIG. 3 reports aggregated data regarding thousands of RNA fragments tested for over- or under-expression of more than one and one-half times more or less expression than in control, for mice treated with C/C (no hormone, no melatonin control), C/M (no hormone/melatonin), EMP/C (estrogen/mid progesterone (that is, half the recommended dose of progesterone, or 50 mg (P4)) but no melatonin) and EMP/M (estrogen/mid progesterone (that is, half the recommended dose of progesterone, or 50 mg (P4)) and melatonin).

[3] = tested on: mammary tumors in MMTV-neu mice; test: Mammary tumor growth and progression (tumor weight, volume, metastatic incidence), same study; assay type: in vivo; details: compared to control animals (FIG. 2)
Description: as §1

## COc1ccc2[nH]cc(CCNC(C)=O)c2c1 [melatonin]
[1]; compared to control animals
  incidence of mammary cancer, in words: did not modify
  latency of mammary cancer (age of primary tumor onset), in words: did not modify
[1]; control 44/57
  incidence of mammary cancer (animals with tumor/animals in group): 42/57
[1]; control 77%
  incidence of mammary cancer: 74%
[2]
  RNA expression changes (upregulation and downregulation), in words: limited number of RNA expression changes
[3]
  tumor volume: significant decrease
  tumor weight: significant decrease
